Laboratory results reported in US6951731B2, “Method for evaluating inhibition of aspartic proteases” (priority 2001, dated 2005).
Where two headings read alike, the source gives them in different places. Where a SMILES comes first, the peptide text is derived from it. [ ]: non-standard residue; d: D form. The star is where a group is joined. Sta = CC(C)C[C@H](N)[C@@H](O)CC(=O)O; Isovaleryl = CC(C)CC(=O)*

What was measured:
[1] = target: T1, pepsin (Sus scrofa, UniProt P00791); conditions: cited from earlier work; for D2Okcat (solvent isotope effect): pepsin, synthetic peptide substrate
T1 construct: formed from pepsinogen A by limited proteolysis
T1 sequence (P00791 60-385): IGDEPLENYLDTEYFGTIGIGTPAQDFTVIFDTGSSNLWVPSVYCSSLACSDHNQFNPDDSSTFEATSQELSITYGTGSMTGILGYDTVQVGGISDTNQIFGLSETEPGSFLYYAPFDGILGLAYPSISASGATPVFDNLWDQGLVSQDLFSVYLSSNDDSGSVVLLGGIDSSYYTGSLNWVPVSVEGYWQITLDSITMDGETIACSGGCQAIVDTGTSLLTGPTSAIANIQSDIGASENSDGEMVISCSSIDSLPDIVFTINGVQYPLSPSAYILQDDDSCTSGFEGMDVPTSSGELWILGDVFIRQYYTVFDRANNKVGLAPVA

[2] = target: T1, pepsin; conditions: cited from earlier work
[3] = target: T2, HIV-1 protease (Human immunodeficiency virus type 1 group M subtype B, UniProt P04585); conditions: complex between HIV-1 protease and pepstatin; cited from earlier work
[4] = target: T1, pepsin; experiment: Kinetics and solvent isotope effects of pepsin acting on synthetic substrates; assay type: biochemical, porcine; conditions: for kcat (fitted pH-independent kinetic constant): re-analysis of Hunkapillar & Richards data
Procedure: FIG. 2: Kinetics of pepsin acting on N-trifluroacetyl-L-phenylalanine as a function of pH (A) and pD (B). The fitted pH-independent kinetic constants are kcat=0.038±0.006 min^−1 in H2O and kcat=[…] in D2O. The dotted line indicates the range of carboxyl pKs consistent with the fitted line in D2O.
The response of low-barrier hydrogen bonds to D2O, as described herein, finally solves this 92 year-old mystery and simultaneously provides a means to evaluate the efficacy of potential aspartic protease inhibitors. During hydrolysis of N-trifluroacetyl-L-phenylalanine, Hunkapillar & Richards^10 observed bell-shaped pH profiles which were shifted to the right, but the upper pK profiles shifted to the left, thereby bringing them closer together. Normally, D2O shifts all pKs to the right about half a unit because of the fractionation factor of H3O^+.^11
The fit to the BELL rate equation of data obtained in H2O converged with pKs of 2.9±0.1 and 4.5±0.1, while those in D2O converged to the default separation of only 0.6 units, the minimum that is statistically possible. The fitted curve in FIG. 2B is the same for identical pKs of 3.84±0.08 or separated pKs of 3.5 and 4.1—or anything in between. Unknown in 1972, low-barrier hydrogen bonds are now understood to cause opposite shifts in the pKs of the conjugate bases participating in the bond. Both protonation and deprotonation of the low-barrier hydrogen bond complex are made more difficult, which shifts apparent pKs outwards in H2O but less so in D2O.^7
By comparing the maximal values of their fitted curves, Hunkapillar & Richards estimated that ^D2Okcat≈3. However, the appropriate comparison note between the absolute maxima, but between the pH-independent maxima,^11 represented by the horizontal bars in FIGS. 2A and 2B. This ratio yields ^D2Okcat=1.8±0.4 for pKs separated by 0.6 units, and lower values if the fractionation factor is greater than 0.3. […]

[5] = target: T2, HIV-1 protease; conditions: cited from earlier work
[6] = product inhibition, substrate Ac-Ser-Glu-Asp-Tyr*Phe-Leu-Asp-Gly-NH2 (SEQ. ID. NO: 2), read-out: Kii
[7] = product inhibition, substrate Ac-Ser-Glu-Asp-Tyr*Phe-Leu-Asp-Gly-NH2 (SEQ. ID. NO: 2), read-out: Kis
[8] = substrate Ac-Ser-Glu-Asp-Tyr*Phe-Leu-Asp-Gly-NH2 (SEQ. ID. NO: 2), KH/KD
[9] = pH 4.5, substrate Ac-Ser-Glu-Asp-Tyr*Phe-Val-Val-NH2 (SEQ. ID. NO: 6)

Compound: Lys-Lys-Ala-Lys-Phe-Nph-Arg-Leu
- D2Okcat (solvent isotope effect) [1]: 2.02±0.15

Compound: CC(C)CC(=O)N[C@H](C(=O)N[C@H](C(=O)N[C@@H](CC(C)C)[C@@H](O)CC(=O)N[C@@H](C)C(=O)N[C@@H](CC(C)C)[C@@H](O)CC(=O)O)C(C)C)C(C)C [pepstatin] (Isovaleryl-VV[Sta]A[Sta]-OH)
- D2Ok on slow onset of inhibition ([2]; pre-incubation experiments with free enzyme): 0.69±0.09
- D2Ok on slow onset of inhibition ([2]; when catalysis is in progress): 1.25±0.09
- Low-barrier hydrogen bond signal in proton NMR of the inhibited complex [3]: negative results

Compound: O=C(O)[C@H](Cc1ccccc1)NC(=O)C(F)(F)F [N-trifluroacetyl-L-phenylalanine]
- kcat (fitted pH-independent kinetic constant) ([4]; in D2O): 0.022±2 min^−1
- kcat (fitted pH-independent kinetic constant) ([4]; in H2O): 0.038±0.006 min^−1
- D2Okcat ([4]; ratio of pH-independent maxima, pKs separated by 0.6 units): 1.8±0.4
- D2Okcat ([1]; estimated by Hunkapillar & Richards from maximal values of fitted curves): ≈ 3

Compound: Ac-Ser-Glu-Asp-Tyr (SEDY; printed: Ser-Glu-Asp-Tyr)
- Ki [5, 6]: 12 mM
- Ki [5, 7]: 3.8 mM
- D2OKii (solvent isotope effect on Kii) [5, 8]: 3.8 ± 1.3
- D2OKis (solvent isotope effect on Kis) [5, 8]: 4.2 ± 1.6

Compound: RASEDY [Ac-Arg-Ala-Ser-Glu-Asp-Tyr]
- Ki ([5]; pH 3.5, substrate Ac-Ser-Glu-Asp-Tyr*Phe-Val-Val-NH2 (SEQ. ID. NO: 6), pattern uncompetitive, read-out: Kii): 0.23 mM
- D2OKii (solvent isotope effect on Kii) [5, 9]: 1.0 ± 0.8
- D2OKis (solvent isotope effect on Kis) [5, 9]: 1.2 ± 0.4
- D2OKii (solvent isotope effect on Kii) ([5]; pH 6, substrate SEQ. ID. NO: 4): 3.8 ± 1.3
- D2OKis (solvent isotope effect on Kis) ([5]; pH 6, substrate SEQ. ID. NO: 4): 4.2 ± 1.6
- Ki ([5]; pH 6, substrate printed Ac-Ser-Glu-Asp-Tyr*Phe-Leu-Asp-Gly-NH2 (SEQ. ID. NO: 4), read-out: Kii): 8 mM
- Ki ([5]; pH 6, substrate printed Ac-Ser-Glu-Asp-Tyr*Phe-Leu-Asp-Gly-NH2 (SEQ. ID. NO: 4), read-out: Kis): 7 mM

Compound: Leu-Ser-Nph-Nle-Ala-Leu-OMe
- D2Okcat (solvent isotope effect) [1]: 1.51±0.02

Compound: Phe-Leu-Asp-Gly-NH2 (FLDG; printed: Phe-Leu-Asp-Gly-)
- Ki [5, 6]: 4 mM
- Ki [5, 7]: 12 mM
- D2OKii (solvent isotope effect on Kii) [5, 8]: 3.0 ± 0.9
- D2OKis (solvent isotope effect on Kis) [5, 8]: 1.1 ± 0.4
